Laboratory results taken from patent US10538512B2, “Aminoacylindazole immunomodulators for treatment of autoimmune diseases” (The Rockefeller University, priority 2016, dated 2020).

Each molecule was assayed against T1, Human FXIIa (Homo sapiens, UniProt P00748) (assay: Factor XIIa (FXIIa) inhibitory activity, chromogenic substrate assay). Conditions: Human FXIIa 12.5 nM, Pefachrome XIIa 400 μM, 10 min preincubation.
T1 construct: active coagulation factor XII (FXIIa); purchased Enzyme Research Labs
T1 sequence (P00748 373-615 limits assumed): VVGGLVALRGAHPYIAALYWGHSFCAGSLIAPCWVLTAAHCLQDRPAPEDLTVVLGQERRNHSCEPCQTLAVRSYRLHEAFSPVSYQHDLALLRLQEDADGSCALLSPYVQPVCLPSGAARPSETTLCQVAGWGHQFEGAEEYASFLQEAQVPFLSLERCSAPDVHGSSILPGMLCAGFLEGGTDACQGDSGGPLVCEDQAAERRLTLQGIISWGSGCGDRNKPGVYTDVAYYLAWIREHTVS
T1 sequence (P00748 20-372 partner limits assumed): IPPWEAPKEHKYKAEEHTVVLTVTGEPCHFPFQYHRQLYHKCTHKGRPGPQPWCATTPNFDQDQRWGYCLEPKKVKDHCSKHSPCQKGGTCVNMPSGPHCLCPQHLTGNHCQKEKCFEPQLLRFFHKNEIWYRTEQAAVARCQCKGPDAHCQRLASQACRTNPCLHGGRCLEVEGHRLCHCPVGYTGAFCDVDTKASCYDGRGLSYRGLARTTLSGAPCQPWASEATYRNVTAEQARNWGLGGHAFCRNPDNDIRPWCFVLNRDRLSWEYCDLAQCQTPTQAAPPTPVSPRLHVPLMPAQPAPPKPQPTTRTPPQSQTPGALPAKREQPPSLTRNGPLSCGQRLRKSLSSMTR
Format: biochemical
Procedure: Factor XIIa (FXIIa) Inhibitory Activity:
In a 96-well clear bottom plate, 80 μl of assay buffer was added to each well. Assay buffer consists of 0.5× Hank's Balanced Salt Solution (Invitrogen), buffered with 25 mM HEPES pH 7.4 (Invitrogen) and 0.5× Tris-buffered saline with Tween-20 0.05% (Santa Cruz Biotechnology). Test compounds were first dissolved in DMSO (Sigma) and then 4 μl were added to test wells containing assay buffer. Serial dilutions using an automated multi-channel pipette were used to generate a concentration range of approximately 1-100 μM. […] 80 μl of this enzyme solution was added to the assay wells. The enzyme/compound mixtures were incubated for 10 minutes at room temperature. Chromogenic substrate (Pefachrome XIIa; Enzyme Research Labs) was added to assay wells at a final concentration of 400 μM. The assay plate was spun for 1 minute at 1500 g and then read at 37° C. in a SpectraMax M2 plate reader (λ=405 nm). Activity was quantified as the rate of change in absorbance, which corresponds to the rate of substrate cleavage.

Row | IC50 | Structure (SMILES)
1 | 3000 nM | Nc1c2c(nn1C(=O)[C@H]1CCNc3ccc(F)cc31)CC[C@@H](N)C2 (stereo in doubt) [Example 189, ((5R*)-3,5-diamino-4,5,6,7-tetrahydroindazol-2-yl)((4S*)-6-fluoro-1,2,3,4-tetrahydroquinolin-4-yl)methanone]
2 | 4000 nM | Nc1c2c(nn1C(=O)[C@@H]1CCNc3ccc(F)cc31)CC[C@H](N)C2 (stereo in doubt) [Example 193, ((5S*)-3,5-diamino-4,5,6,7-tetrahydroindazol-2-yl)((4R*)-6-fluoro-1,2,3,4-tetrahydroquinolin-4-yl)methanone]
3 | 4000 nM | Nc1c2c(nn1C(=O)c1cccc3ccccc13)CCCC2 [Example 39, (3-amino-4,5,6,7-tetrahydroindazol-2-yl)(naphthalen-1-yl)methanone]
4 | 11000 nM | Cc1[nH]c2ccccc2c1C(=O)n1nc2c(c1N)CCCC2 [Example 44, (3-amino-4,5,6,7-tetrahydroindazol-2-yl)(2-methyl-1H-indol-3-yl)methanone]
5 | 30 nM | Nc1c2c(nn1C(=O)c1cccc3[nH]ncc13)CCCC2 [Example 47, (3-amino-4,5,6,7-tetrahydroindazol-2-yl)(1H-indazol-4-yl)methanone]
6 | 20 nM | Cc1cc2c(C(=O)n3nc4c(c3N)CCCC4)cccc2n1C(C)C [Example 49, (3-amino-4,5,6,7-tetrahydroindazol-2-yl)(1-isopropyl-2-methyl-1H-indol-4-yl)methanone]
7 | 60 nM | Cc1cc2c(C(=O)n3nc4c(c3N)CCCC4)cccc2s1 [Example 57, (3-Amino-4,5,6,7-tetrahydro-indazol-2-yl)-(2-methyl-benzo[b]thiophen-4-yl)-methanone]
8 | 40 nM | CCc1cc2c([nH]1)CCCC2C(=O)n1nc2c(c1N)CCCC2 (stereo not shown) [Example 82, (3-amino-4,5,6,7-tetrahydroindazol-2-yl)(2-ethyl-4,5,6,7-tetrahydro-1H-indol-4-yl)methanone]
9 | 5000 nM | CN1CCC(C(=O)n2nc3c(c2N)CCCC3)c2cccnc21 (stereo not shown) [Example 87, (3-amino-4,5,6,7-tetrahydroindazol-2-yl)(1-methyl-1,2,3,4-tetrahydro-1,8-naphthyridin-4-yl)methanone]
10 | 850 nM | Cn1cc2c(n1)CCCC2C(=O)n1nc2c(c1N)CCCC2 (stereo not shown) [Example 88, (3-amino-4,5,6,7-tetrahydroindazol-2-yl)(2-methyl-4,5,6,7-tetrahydro-2H-indazol-4-yl)methanone]
11 | > 100000 nM | Nc1nn(C(=O)C2CCCc3[nH]ccc32)c2c1CCCC2 (stereo not shown) [Example 93, (3-amino-4,5,6,7-tetrahydroindazol-1-yl)(4,5,6,7-tetrahydro-1H-indol-4-yl)methanone]
12 | 900 nM | Cc1ccc2c(c1)NCCC2C(=O)n1nc2c(c1N)CCCC2 (stereo not shown) [Example 101, (3-amino-4,5,6,7-tetrahydroindazol-2-yl)(7-methyl-1,2,3,4-tetrahydroquinolin-4-yl)methanone]
13 | 700 nM | Nc1c2c(nn1C(=O)C1CCNc3cc(Cl)ccc31)CCCC2 (stereo not shown) [Example 103, (3-amino-4,5,6,7-tetrahydroindazol-2-yl)(7-chloro-1,2,3,4-tetrahydroquinolin-4-yl)methanone]
14 | > 50000 nM | Nc1nn(C(=O)C2CCNc3cc(Cl)ccc32)c2c1CCCC2 (stereo not shown) [Example 104, (3-amino-4,5,6,7-tetrahydroindazol-1-yl)(7-chloro-1,2,3,4-tetrahydroquinolin-4-yl)methanone]
15 | 1800 nM | Nc1c2c(nn1C(=O)C1CCNc3cc(C(F)(F)F)ccc31)CCCC2 (stereo not shown) [Example 105, (3-amino-4,5,6,7-tetrahydro-2H-indazol-2-yl)(7-(trifluoromethyl)-1,2,3,4-tetrahydroquinolin-4-yl)methanone]
16 | 250 nM | COc1ccc2c(c1)NCCC2C(=O)n1nc2c(c1N)CCCC2 (stereo not shown) [Example 110, (3-amino-4,5,6,7-tetrahydroindazol-2-yl)(7-methoxy-1,2,3,4-tetrahydroquinolin-4-yl)methanone]

Row | IC50 | Structure (SMILES)
17 | > 100000 nM | COc1ccc2c(c1)NCCC2C(=O)n1nc(N)c2c1CCCC2 (stereo not shown) [Example 111, (3-amino-4,5,6,7-tetrahydroindazol-1-yl)(7-methoxy-1,2,3,4-tetrahydroquinolin-4-yl)methanone]
18 | 180 nM | Cn1c(Cl)cc2c1CCCC2C(=O)n1nc2c(c1N)CCCC2 (stereo not shown) [Example 112, (3-amino-4,5,6,7-tetrahydroindazol-2-yl)(2-chloro-1-methyl-4,5,6,7-tetrahydro-1H-indol-4-yl)methanone]
19 | 50 nM | CCc1cc2c(C(=O)n3nc4c(c3N)CCCC4)ccnc2[nH]1 [Example 113, (3-amino-4,5,6,7-tetrahydro-2H-indazol-2-yl)(2-ethyl-1H-pyrrolo[2,3-b]pyridin-4-yl)methanone]
20 | > 100000 nM | CCc1cc2c(C(=O)n3nc(N)c4c3CCCC4)ccnc2[nH]1 [Example 114, (3-amino-4,5,6,7-tetrahydro-1H-indazol-1-yl)(2-ethyl-1H-pyrrolo[2,3-b]pyridin-4-yl)methanone]
21 | 400 nM | Nc1c2c(nn1C(=O)C1CCNc3cc(F)ccc31)CCCC2 (stereo not shown) [Example 115, (3-amino-4,5,6,7-tetrahydroindazol-2-yl)(7-fluoro-1,2,3,4-tetrahydroquinolin-4-yl)methanone]
22 | 30 nM | Cc1cc2c(C(=O)n3nc4c(c3N)CC(OCc3ccccc3)CC4)cccc2[nH]1 (stereo not shown) [Example 117, (3-amino-5-(benzyloxy)-4,5,6,7-tetrahydroindazol-2-yl)(2-methyl-1H-indol-4-yl)methanone]
23 | 20000 nM | Cc1cc2c(C(=O)n3nc(N)c4c3CCC(OCc3ccccc3)C4)cccc2[nH]1 (stereo not shown) [Example 118, (3-amino-5-(benzyloxy)-4,5,6,7-tetrahydroindazol-1-yl)(2-methyl-1H-indol-4-yl)methanone]
24 | 50 nM | COC1CCc2nn(C(=O)c3cccc4[nH]c(C)cc34)c(N)c2C1 (stereo not shown) [Example 119, (3-amino-5-methoxy-4,5,6,7-tetrahydro-2H-indazol-2-yl)(2-methyl-1H-indol-4-yl)methanone]
25 | 2500 nM | Nc1c2c(nn1C(=O)c1ccnc3cc(Cl)ccc13)CCCC2 [Example 123, (3-amino-4,5,6,7-tetrahydro-2H-indazol-2-yl)(7-chloroquinolin-4-yl)methanone]
26 | 13000 nM | Nc1c2c(nn1C(=O)c1ccnc3ccccc13)CCCC2 [Example 158]
27 | 150 nM | Cc1cc2c(C(=O)n3cc4c(n3)CCCC4)cccc2[nH]1 [Example 159]
28 | 6000 nM | Cc1cc2c(C(=O)n3ncc4c3CCCC4)cccc2[nH]1 [Example 160]
29 | 1500 nM | Cc1ccc2c(c1)N(C)CCC2C(=O)n1nc2c(c1N)CCCC2 (stereo not shown) [Example 163]
30 | 16000 nM | Nc1nn(C(=O)C2CCNc3ccc(F)cc32)c2c1CC(F)(F)CC2 (stereo not shown) [Example 175, (3-amino-5,5-difluoro-4,5,6,7-tetrahydroindazol-1-yl)(6-fluoro-1,2,3,4-tetrahydroquinolin-4-yl)methanone]
31 | 7500 nM | Cc1cccc2c1NCCC2C(=O)n1nc(N)c2c1CCC=C2 (stereo not shown) [Example 196, (3-amino-6,7-dihydroindazol-1-yl)(8-methyl-1,2,3,4-tetrahydroquinolin-4-yl)methanone]
